# Laboratory results from patent publication US20170280720A1, “ARGININE […] INHIBITORS AND USES THEREOF” (EPIZYME, INC., priority 2014, published 2017).
# Target: PRMT5 (Homo sapiens, UniProt O14744)
# Assay: PRMT5 IC50 (Table 2; no method described)
# Type: biochemical
# Settings: read-out: PRMT5_ IC50
# Sequence of PRMT5 (O14744 whole entry, species assumed): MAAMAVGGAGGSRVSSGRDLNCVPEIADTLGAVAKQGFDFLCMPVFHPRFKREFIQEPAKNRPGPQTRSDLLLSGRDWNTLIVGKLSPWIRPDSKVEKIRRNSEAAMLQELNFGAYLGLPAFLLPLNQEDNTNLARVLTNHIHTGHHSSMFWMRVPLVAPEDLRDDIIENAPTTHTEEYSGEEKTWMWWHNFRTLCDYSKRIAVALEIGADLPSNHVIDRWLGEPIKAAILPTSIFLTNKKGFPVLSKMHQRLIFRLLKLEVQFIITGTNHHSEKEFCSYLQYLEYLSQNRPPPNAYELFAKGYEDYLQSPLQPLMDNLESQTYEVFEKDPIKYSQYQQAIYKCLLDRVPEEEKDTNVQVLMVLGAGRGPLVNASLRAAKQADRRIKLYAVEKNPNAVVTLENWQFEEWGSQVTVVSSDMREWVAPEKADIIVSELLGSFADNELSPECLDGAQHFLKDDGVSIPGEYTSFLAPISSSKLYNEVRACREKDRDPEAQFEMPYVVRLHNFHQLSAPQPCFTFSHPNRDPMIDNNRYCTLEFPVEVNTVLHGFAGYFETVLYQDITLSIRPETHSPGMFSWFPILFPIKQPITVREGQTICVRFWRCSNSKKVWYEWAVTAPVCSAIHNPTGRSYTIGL
# Sequence of PRMT5 (Q9BQA1 whole entry partner, species assumed): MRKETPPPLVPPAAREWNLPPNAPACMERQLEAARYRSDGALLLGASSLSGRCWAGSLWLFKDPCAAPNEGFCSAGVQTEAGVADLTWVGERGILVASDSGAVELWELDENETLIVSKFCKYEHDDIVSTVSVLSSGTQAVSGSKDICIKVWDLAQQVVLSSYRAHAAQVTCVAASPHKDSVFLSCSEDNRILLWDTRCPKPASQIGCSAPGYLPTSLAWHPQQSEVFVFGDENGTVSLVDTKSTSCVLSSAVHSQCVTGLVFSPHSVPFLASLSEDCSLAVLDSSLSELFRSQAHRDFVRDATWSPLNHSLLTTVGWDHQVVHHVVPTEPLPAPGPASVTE
row,SMILES,IC50 [µM]
1,CC(C)n1ncc2c(C(=O)N(C)Cc3ccccc3)cc(-c3cccc(CN(C)CCN)c3)nc21 [Compound 31],0.858
2,Cc1c(C(=O)NCc2ccccc2)cc(-c2cccc(CN(C)CCN)c2)c2cn[nH]c12 [Compound 15],10.8
3,COc1ccc(Cn2cnc3ccc(-c4ccc(CNCCN)cc4)cc32)cc1 [Compound 132],0.0572
4,Cc1ccc(-n2cnc3cc(-c4ccc(CNCCN)cc4)ccc32)cc1 [Compound 131],0.371
5,COc1ccc(Cn2cnc3ccc(-c4ccc(CN(C)CCN)cc4)cc32)cc1 [Compound 16],5.69
6,CN(CCN)Cc1ccc(-c2ccc3ncn(-c4ccccc4)c3c2)cc1 [Compound 19],34.7
7,CS(=O)(=O)N1CCC(Cn2cnc3ccc(-c4ccc(CNCCN)cc4)cc32)CC1 [Compound 129],0.122
8,CNCCN(C)Cc1cccc(-c2ccc3c(c2)ncn3C(C)C)c1 [Compound 36],50
9,CNCCN(C)Cc1cccc(-c2cc(C(=O)N[C@@H](C)c3ccccc3)c3cnn(C(C)C)c3n2)c1 [Compound 44],50
10,CC(C)n1ncc2c(C(=O)N3CCc4ccccc4C3)cc(-c3cccc(CN(C)CCN)c3)nc21 [Compound 23],11.6
11,CNCCN(C)Cc1cccc(-c2cc(C(=O)N(C)Cc3ccccc3)c3cnn(C(C)C)c3n2)c1 [Compound 24],0.849

# More lines, now with the values ahead:
row,IC50 [µM],SMILES
1,35.9,CC(C)n1ncc2c(C(=O)N[C@@H](C)c3ccccc3)cc(-c3cccc(CNCCN)c3)nc21 [Compound 160]
2,0.338,NCCNCc1ccc(-c2cnc3c(c2)CCC(=O)N3)cc1 [Compound 156]
3,0.0799,N#Cc1cccc(Cn2cnc3ccc(-c4ccc(CNCCN)cc4)cc32)c1 [Compound 145]
4,0.418,NCCNCc1ccc(-c2ccc3ncn(C4CCNCC4)c3c2)cc1 [Compound 157]
5,50,CC(C)n1ncc2c(C(=O)NCC3CCN(C)CC3)cc(-c3cccc(CN(C)CCN(C)C)c3)nc21 [Compound 162]
6,0.327,Cc1cc2cc(-c3ccc(CNCCN)cc3)ccc2[nH]1 [Compound 141]
7,0.169,COc1cccc(Cc2nc3ccc(-c4ccc(CNCCN)cc4)cc3n2C(C)C)c1 [Compound 135]
8,0.404,CC(C)n1cnc2ccc(-c3ccc(CNCCN)cc3)cc21 [Compound 166]
9,0.281,Cc1cccc(CCn2cnc3ccc(-c4ccc(CNCCN)cc4)cc32)c1 [Compound 143]
10,0.377,COc1cccc(CNC(=O)c2cncc(-c3ccc(CNCCN)cc3)c2)c1 [Compound 356]
11,23.9,CC(C)n1ncc2c(C(=O)NCc3ccncc3)cc(-c3cccc(CNCCN)c3)nc21 [Compound 150]
12,50,CC(C)n1ncc2c(C(=O)N[C@@H](C)c3ccccc3)cc(-c3cccc(CN(C)CCN)c3)nc21 [Compound 136]

# System: asymmetric di-methyl PABP1 in RKO cells
# Assay: In Cell Western (ICW) for asymmetric di-methyl PABP1 and DNA content in RKO cells
# Type: cell-based
# Settings: Homo sapiens, RKO, In Cell Western
# Method in brief: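 RKO cells treated with compound for 48 h at 37 °C, then fixed, methanol-permeabilized and stained for asymmetric di-methyl PABP1 (800 nm) with DRAQ5 DNA stain (700 nm). Signal ratio normalized to DMSO and 20 μM reference-compound controls. IC50 from nine 3-fold dilutions in triplicate.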
row,SMILES,IC50 [µM]
1,CNCCN(C)Cc1cccc(-c2cc(Oc3ccccc3)c3cnn(C(C)C)c3n2)c1 [Compound 45],20
2,CNCCN(C)Cc1cc(-c2cc(C(=O)NC3CCOCC3)c3cnn(C(C)C)c3n2)ccc1F [Compound 130],11.5
3,CC(C)n1ncc2c(C(=O)NCc3ccccc3)cc(-c3cccc(CN(C)CCN)c3)cc21 [Compound 14],20
4,CNCCN(C)Cc1cccc(-c2cc(Nc3ncc(C)s3)c3cnn(C(C)C)c3n2)c1 [Compound 20],3.33
5,"Cc1nn(C(C)C)c2nc(-c3cccc(CN(C)CCN)c3)cc(N3CCOCC3)c12 [Compound 22, N1-(3-(1-isopropyl-3-methyl-4-morpholino-1H-pyrazolo[3,4-b]pyridin-6-yl)benzyl)-N1-methylethane-1,2-diamine]",3.11
6,CCC(=O)c1cc(-c2cccc(CN(C)CCNC)c2)nc2c1cnn2C(C)C [Compound 128],20
7,CNCCN(C)Cc1cccc(-c2cc(C(=O)NCC3CCOCC3)c3cnn(C4CC4)c3n2)c1 [Compound 26],2.15
8,CNCCN(C)Cc1cccc(-c2nc(NCc3cc(C)nn3C)c3cnn(C4CC4)c3n2)c1 [Compound 17],20
9,CNCCN(C)Cc1cccc(-c2cc(NC3CC3)c3cnn(C(C)C)c3n2)c1 [Compound 11],3.44
10,CNCCN(C)Cc1cccc(-c2cc(C(=O)NCc3ccccc3F)c3cnn(C(C)C)c3n2)c1 [Compound 38],4.12
11,CNCCN(C)Cc1cccc(-c2cnc3c(c2)c(Br)nn3CC2CCOCC2)c1 [Compound 39],20
12,CC(C)n1ncc2c(NC3CC3)cc(-c3cccc(CN(C)CCN)c3)nc21 [Compound 41],5.94
13,CNCCN(C)Cc1cccc(-c2cc(C(=O)NC3CCOCC3)c3cnn(C4CCC4)c3n2)c1 [Compound 29],5.21
14,CN(CCN)Cc1cccc(-c2nc(NC3CCOCC3)c3cnn(C(C)(C)C)c3n2)c1 [Compound 18],0.442
15,CNC(=O)Nc1cc(-c2cccc(CN(C)CCN)c2)nc2c1cnn2C(C)C [Compound 126],10.8
16,"CNCCN(C)Cc1cccc(-c2nc(NC3CCOCC3)c3cnn(C(C)(C)C)c3n2)c1 [Compound 27, N1-(3-(1-tert-butyl-4-(tetrahydro-2H-pyran-4-ylamino)-1H-pyrazolo[3,4-d]pyrimidin-6-yl)benzyl)-N1,N2-dimethylethane-1,2-diamine]",0.387
17,CC(C)n1ncc2c(C(=O)N3CCCCC3)cc(-c3cccc(CN(C)CCN)c3)nc21 [Compound 43],20
18,CNCCN(C)Cc1cccc(-c2ccc3cn(Cc4ccccc4)nc3n2)c1 [Compound 35],3.05
19,CNCCN(C)Cc1cccc(-c2cc(C(=O)NCC3CCOCC3)c3cnn(C4CCC4)c3n2)c1 [Compound 21],7.37

# Now from value to compound:
row,IC50 [µM],SMILES
1,13.3,CNCCN(C)Cc1cccc(-c2cc(NS(C)(=O)=O)c3cnn(C(C)C)c3n2)c1 [Compound 169]
2,7.74,CNCCN(C)Cc1cccc(-c2cc(NC(=O)NC)c3cnn(C(C)C)c3n2)c1 [Compound 138]
3,0.972,CC(C)n1ncc2c(C(=O)NC3CCOCC3)cc(-c3cccc(CN(C)CCN)c3)nc21 [Compound 148]
4,13.5,CN(CCN)Cc1cccc(-c2cc(C(=O)NC3CCOCC3)c3cnn(C)c3n2)c1 [Compound 158]
5,5.14,CC(C)n1ncc2c(C(=O)NCC3CCOCC3)cc(-c3cccc(CN(C)CCNC4CC4)c3)nc21 [Compound 167]
6,20,CC(C)n1ncc2c(C(=O)NCc3ccccc3F)cc(-c3cccc(CNCCN)c3)nc21 [Compound 159]
7,11.6,CC(C)n1ncc2c(N3CCOCC3)cc(-c3cccc(CN(C)CCNC4CC4)c3)nc21 [Compound 163]
8,2.77,CN(CCN)Cc1cccc(-c2cc(C(=O)NC3CCOCC3)c3cnn(C4CC4)c3n2)c1 [Compound 142]
9,20,CNCCN(C)Cc1cccc(-c2cc(N)c3cnn(C(C)C)c3n2)c1 [Compound 151]
10,20,CC(C)n1ncc2c(C(=O)N3CCCCC3)cc(-c3cccc(CNCCN)c3)nc21 [Compound 153]
11,8.46,CN(CCN)Cc1cccc(-c2cc(C(=O)NC3CCOCC3)c3cnn(CC(F)(F)F)c3n2)c1 [Compound 144]
12,11.5,CNCCN(C)Cc1cccc(-c2cc(NC(=O)NC3CCOCC3)c3cnn(C(C)C)c3n2)c1 [Compound 133]
13,12.8,CNCCN(C)Cc1cccc(-c2cnc3c(c2)OCC(=O)N3)c1 [Compound 355]
14,11.9,CNCCN(C)Cc1cccc(-c2cc(NS(=O)(=O)C(F)(F)F)c3cnn(C(C)C)c3n2)c1 [Compound 164]
15,11.3,CCS(=O)(=O)Nc1cc(-c2cccc(CN(C)CCNC)c2)nc2c1cnn2C(C)C [Compound 161]
16,4.86,CNCCN(C)Cc1cccc(-c2cc(NS(=O)(=O)N(C)C)c3cnn(C(C)C)c3n2)c1 [Compound 139]
17,9.62,CNCCN(C)Cc1cccc(-c2cc(C(=O)NCc3cnn(C)c3C)c3cnn(C(C)C)c3n2)c1 [Compound 137]
